# Tests used:
# S. aureus = test system: S. aureus; parameters: method as in unpublished data from GBF; settings: former in vivo efficacy studies; ref unpublished data from GBF; cited from earlier work
# CYP3A4 = settings: cited from earlier work
# [1] = test system: Staphylococcus aureus Newman WT; assay: MIC, broth microdilution, S. aureus Newman wild type; assay type: cell-based; settings: Staphylococcus aureus, NEWMAN
# Description: Cefazolin was obtained from Acros Organics. Ciprofloxacin hydrochloride, linezolid and vancomycin hydrochloride were obtained from Sigma-Aldrich (St. Louis, MO, USA). Tetracycline hydrochloride was obtained from Alfa Aesar. Sorangicin A was provided by HZI, Braunschweig. Stock solutions were prepared in Milli-Q water or dimethyl sulfoxide (DMSO, Sigma-Aldrich). Minimum inhibitory concentrations (MICs) were determined in cation-adjusted Mueller-Hinton broth (MHB2) using the broth microdilution method as recommended by the Clinical and Laboratory Standards Institute (CLSI). The MIC was defined as the lowest concentration of the antibiotic causing complete inhibition of visible growth of the microorganism (CLSI, 2017).
# 1. In vitro characterization of mCherry expressing Staphylococcus aureus Newman
# 1.1 Minimum inhibitory concentration
# Table S1. Antibiotic susceptibility profile of Staphylococcus aureus Newman. WT: wild type. […]
# zebrafish embryos = assay: Toxicity of antimicrobials on zebrafish embryos; assay type: in vivo, Danio rerio
# Description: Toxicity of antibiotics was assessed by aquatic exposure and microinjection. For evaluation of the maximum tolerated concentration (MTC) by aquatic exposure, embryos were dechorionated at 30 hpf and placed in a flat-bottom 96-well plate (Sarstedt) with one embryo per well. Excess medium was removed and 150 µL of compound dilutions (in 0.3× Danieau’s, maximum of 1% DMSO) were added. For each antibiotic, a range of concentrations was investigated. Ten embryos were used per concentration and ten additional embryos incubated in fish medium without any antibiotic served as negative control. Microinjection of antibiotics into the caudal vein (CV) and the yolk sac was performed as described earlier. PBS-injected embryos served as negative control. Exposed embryos were maintained at 28 °C throughout the whole experiment. Embryos were monitored daily under a stereo microscope (Stemi 508, Zeiss) in order to record survival as well as anomalies, pigmentation, heartbeat and locomotor responses. An embryo was considered dead when no heart beat could be observed.
# [2] = test system: mCherry-expressing S. aureus Newman; assay: Zebrafish embryo model of S. aureus yolk infection, antibiotic treatment efficacy; assay type: in vivo, Staphylococcus aureus
# Description: With the aim to study the in vivo efficacy of drugs, 30 hpf zebrafish embryos were infected with 50 CFU of mCherry-expressing S. aureus Newman. Embryos were then left to recover from injection for two hours and subsequently treated with various reference antibiotics. Antibiotic treatment was performed via bath water immersion as well as via microinjection into the yolk (local treatment) and the caudal vein (systemic treatment) to study whether differences in in vivo activity exist between the three administration routes. Survival was assessed daily until 120 hpf. Additionally, the infection was visualized and quantified by means of fluorescence microscopy at 24 h post treatment (hpt). At the end of every experiment, living embryos (and dead embryos, if possible) were homogenized to determine the remaining bacterial count. Five approved antibiotics from different classes were assessed in vivo. The chosen drugs ought to differ in physicochemical properties, such as molecular weight and polarity, in order to detect a pattern between successful administration routes and the physicochemical properties of the drug. Prior to efficacy assessment, drug-mediated toxicity in zebrafish embryos was investigated using the same administration routes (Figure S3). For microinjection, a fixed dose of 20 to 30 mg/kg was used for each antibiotic. The concentration for bath water immersion was based on the minimum inhibitory concentration (MIC) and the maximum tolerated concentration (MTC) of the drug, whereby it is generally recommended to use 50- to 100-fold the antibacterial MIC to see a positive effect.
# Pulled glass capillaries for microinjection (Table S2) were prepared using a micropipette puller (P-1000, Sutter Instrument). Dechorionated and anaesthetized embryos were infected with 50 colony-forming units (CFU) of mCherry-expressing S. aureus Newman by microinjection into the yolk sac at 30 hpf. In order to confirm bacterial numbers, an equal volume of bacterial cells was ejected onto Tryptic Soy Agar (TSA) supplemented with 10 µg/mL chloramphenicol before and after the injection. Antibiotic treatment was performed two hours post infection (hpi) via three different administration routes, namely bath water immersion and microinjection into the yolk sac as well as the caudal vein (CV). The infection procedure and treatment of infected embryos are described in details in the supplementary materials (Table S3).
# Embryos were transferred individually to microcentrifuge tubes and washed at least three times with sterile PBS. 200 µL of sterile PBS were added and embryos were mechanically homogenized using a micropestle (Carl Roth, Karlsruhe, Germany). 800 µL of sterile PBS were added to reach a final volume of 1 mL. The homogenates were diluted and plated on tryptic soy agar (TSA). CFU counts were determined after 24 h of incubation at 37 °C.
# Embryos were placed in a black 96-well plate (Falcon; Thermo Fisher, Dreieich, Germany) and cryo-anaesthetized by submersion into ice water. Images for quantitative fluorescence analysis were acquired using the following equipment: a fluorescence stereo microscope (M205 FA, Leica Microsystems, Wetzlar, Germany) in combination with a fluorescence illuminator (X-Cite, 200DC, Excelitas Technologies, Waltham, MA, USA) and a microscope camera (DFC7000 T, Leica Microsystems). Quantification of fluorescence was performed using Fiji ImageJ version 2.1.0. Fluorescent Integrated Density (FID) was determined by counting the number of pixels with fluorescence intensity greater than the threshold (10) and multiplying the count with its mean intensity. For confocal imaging, embryos were anaesthetized through immersion in tricaine (945 µM, Sigma-Aldrich) and immobilized in 1.2% low-melting agarose in a flat-bottom 96-well plate. Confocal images and time-lapse series were acquired using the Celldiscoverer 7 with LSM 900 (Zeiss) together with the 5×/0.35 Plan-APOCHROMAT objective.
# 2. […]
# [3] = Phase I metabolic stability, mouse liver microsomes; assay type: in vitro ADME; settings: pooled liver microsomes, pH 7.4
# Description: For the evaluation of phase I metabolic stability, the compound (1 µM) was incubated with 0.5 mg/mL pooled mouse/rat liver microsomes (Xenotech, Kansas City, MO, USA) or human liver microsomes (Corning, NY, USA), 2 mM NADPH and 10 mM MgCl2 at pH 7.4 for 120 min at 37 °C. The metabolic stability of testosterone, verapamil and ketoconazole were determined in parallel to confirm the enzymatic activity of mouse/rat liver microsomes; for human liver microsomes testosterone, diclofenac and propranolol were used. The incubation was stopped after defined time points by precipitation of aliquots of the assay mixture with two volumes of ice-cold acetonitrile containing internal standard (15 nM diphenhydramine). Samples were stored on ice until the end of the incubation and precipitated protein was removed by centrifugation (15 min, 4 °C, 4000× g).
structure (smiles),measurement,setting,value
C/C(=C\[C@H](C)CCCCC(=O)O)[C@@H]1O[C@@H]2C=C[C@H]1OC(=O)\C=C/C=C\C=C\[C@H]1O[C@@H]3C[C@H]1O[C@@H](/C=C/C[C@H]1O[C@H](C[C@H](O)[C@H]1C)[C@@H](O)[C@@H](O)/C=C/CC/C=C/C2)[C@@H]3C [sorangicin A],protective effect in mouse models of S. aureus infection,S. aureus,failed to show a protective effect
same,CYP3A4 induction,CYP3A4,only moderate CYP3A4 induction
same,MIC,[1],0.0625 mg/L
same,reduction in embryo survival with respect to control (1% DMSO),"zebrafish embryos; long-term aquatic exposure, 200 µg/mL",10%
same,tolerability of injection dose,zebrafish embryos; microinjection 30 mg/kg,well-tolerated
same,well-tolerated concentration,zebrafish embryos; short- and long-term aquatic exposure,up to 100 µg/mL
same,effect on survival of infected embryos,[2]; bath water immersion 50-100x MIC,did not show any protective effect
same,difference between treated and untreated embryos,[2]; bath water supplemented with 1000x MIC,no difference
same,bacterial fluorescence (FID) at 24 hpt,[2]; caudal vein microinjection,Bacterial fluorescence was suppressed
same,embryos succumbed to the infection,"[2]; caudal vein microinjection 2 hpi, 50 CFU yolk infection",75%
same,effect on survival of infected embryos,"[2]; caudal vein microinjection 20-30 mg/kg, 2 hpi",significantly extended the lifespan
same,bacterial numbers,"[2]; caudal vein microinjection, succumbed embryos",exceeding 10^4 CFU/embryo
same,bacteria recovered (CFU plating) at 120 hpf,[2]; yolk microinjection,complete eradication of bacteria
same,bacterial fluorescence (FID) at 24 hpt,[2]; yolk microinjection,reduced bacterial burden
same,effect on survival of infected embryos,"[2]; yolk microinjection 20-30 mg/kg, 2 hpi",significantly increased the survival rate
same,microsomal CLint at 1 µM,[3],557 ± 297 µL/min/mg

# Source: paper PMC10454396 (International Journal of Molecular Sciences, 2023)
